PubChem BioAssay AID1963864 (Molecular Pharmacology Branch, DTP, NCI, 2024)

Test system: KRAS PDC multicell spheroid viability
Experiment: Anticancer human tumor 521955-158-R6-J3-PDC patient-derived pancreatic carcinoma cell line growth inhibition [KRAS2]
Details: for IC50: curve of first compound; for viability, T/C: stronger effect = lower value; active = viability on the fitted dose curve at most 10% of control; inactive = the rest
Outline: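 KRAS-mutant tumor cells were grown as spheroids with HUVEC endothelial cells and human MSCs as stroma. Targeted agents were tested alone and with KRAS pathway inhibitors. Doses started at or near clinical Cmax, or 10 microM, descending half-log.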

[1] = second compound 0.1 µM, first compound 0.000316 µM
[2] = second compound 0.1 µM, first compound 0.001 µM
[3] = second compound 0.1 µM, first compound 0.00316 µM
[4] = second compound 0.1 µM, first compound 0.01 µM
[5] = second compound 0.1 µM, first compound 0.0316 µM
[6] = second compound 0.316 µM, first compound 0.000316 µM
[7] = second compound 0.316 µM, first compound 0.001 µM
[8] = second compound 0.316 µM, first compound 0.00316 µM
[9] = second compound 0.316 µM, first compound 0.01 µM
[10] = second compound 0.316 µM, first compound 0.0316 µM
[11] = second compound 1 µM, first compound 0.000316 µM
[12] = second compound 1 µM, first compound 0.001 µM
[13] = second compound 1 µM, first compound 0.00316 µM
[14] = second compound 1 µM, first compound 0.01 µM
[15] = second compound 1 µM, first compound 0.0316 µM
[16] = second compound 3.16 µM, first compound 0.000316 µM
[17] = second compound 3.16 µM, first compound 0.001 µM
[18] = second compound 3.16 µM, first compound 0.00316 µM
[19] = second compound 3.16 µM, first compound 0.01 µM
[20] = second compound 3.16 µM, first compound 0.0316 µM
[21] = second compound 10 µM, first compound 0.000316 µM
[22] = second compound 10 µM, first compound 0.001 µM
[23] = second compound 10 µM, first compound 0.00316 µM
[24] = second compound 10 µM, first compound 0.01 µM
[25] = second compound 10 µM, first compound 0.0316 µM
[26] = second compound 0.1 µM, first compound 0.1 µM
[27] = second compound 0.316 µM, first compound 0.1 µM
[28] = second compound 1 µM, first compound 0.1 µM
[29] = second compound 3.16 µM, first compound 0.1 µM
[30] = second compound 10 µM, first compound 0.1 µM
[31] = second compound 0.1 µM, first compound 0.316 µM
[32] = second compound 0.1 µM, first compound 1 µM
[33] = second compound 0.1 µM, first compound 3.16 µM
[34] = second compound 0.1 µM, first compound 10 µM
[35] = second compound 0.316 µM, first compound 0.316 µM
[36] = second compound 0.316 µM, first compound 1 µM
[37] = second compound 0.316 µM, first compound 3.16 µM
[38] = second compound 0.316 µM, first compound 10 µM
[39] = second compound 1 µM, first compound 0.316 µM
[40] = second compound 1 µM, first compound 1 µM
[41] = second compound 1 µM, first compound 3.16 µM
[42] = second compound 1 µM, first compound 10 µM
[43] = second compound 3.16 µM, first compound 0.316 µM
[44] = second compound 3.16 µM, first compound 1 µM
[45] = second compound 3.16 µM, first compound 3.16 µM
[46] = second compound 3.16 µM, first compound 10 µM
[47] = second compound 10 µM, first compound 0.316 µM
[48] = second compound 10 µM, first compound 1 µM
[49] = second compound 10 µM, first compound 3.16 µM
[50] = second compound 10 µM, first compound 10 µM
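Also: drug exposure lasted seven days.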
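For viability, T/C in this document: 100% = DMSO vehicle wells and lower means fewer viable cells.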

CC(=O)Nc1cccc(-n2c(=O)n(C3CC3)c(=O)c3c(Nc4ccc(I)cc4F)n(C)c(=O)c(C)c32)c1 + CC1OCC2(CCN(c3cnc(Sc4ccnc(N)c4Cl)c(N)n3)CC2)C1N
2.44 nM: IC50 (second compound 3.16 µM)
5.43 nM: IC50 (second compound 1 µM)
2.24 nM: IC50 (second compound 10 µM)
12.5 nM: IC50 (second compound 0.316 µM)
18.9 nM: IC50 (second compound 0.1 µM)
inactive: viability, T/C (second compound 0.1 µM, first compound 0.0001 µM) 87.8% | viability, T/C [1] 82.8% | viability, T/C [2] 91.2% | viability, T/C [3] 83.5% | viability, T/C [4] 56.7% | viability, T/C [5] 44.6% | viability, T/C (second compound 0.316 µM, first compound 0.0001 µM) 83.2% | viability, T/C [6] 85.7% | viability, T/C [7] 77.2% | viability, T/C [8] 65% | viability, T/C [9] 55.7% | viability, T/C [10] 33.7% | viability, T/C (second compound 1 µM, first compound 0.0001 µM) 103% | viability, T/C [11] 87.6% | viability, T/C [12] 80.1% | viability, T/C [13] 55.3% | viability, T/C [14] 41.8% | viability, T/C [15] 27.8% | viability, T/C (second compound 3.16 µM, first compound 0.0001 µM) 105% | viability, T/C [16] 90.7% | viability, T/C [17] 62.8% | viability, T/C [18] 47% | viability, T/C [19] 34.9% | viability, T/C [20] 28.6% | viability, T/C (second compound 10 µM, first compound 0.0001 µM) 85.6% | viability, T/C [21] 70.9% | viability, T/C [22] 67.4% | viability, T/C [23] 42.3% | viability, T/C [24] 30.3% | viability, T/C [25] 23%

CC(C)n1nc(-c2ccc3oc(N)nc3c2)c2c(N)ncnc21 + CC1OCC2(CCN(c3cnc(Sc4ccnc(N)c4Cl)c(N)n3)CC2)C1N
23.5 nM: IC50 (second compound 10 µM)
33.5 nM: IC50 (second compound 3.16 µM)
55.7 nM: IC50 (second compound 1 µM)
inactive: viability, T/C [1] 89% | viability, T/C [2] 85.8% | viability, T/C [3] 74% | viability, T/C [4] 65.3% | viability, T/C [5] 57.4% | viability, T/C [26] 50% | viability, T/C [6] 92.3% | viability, T/C [7] 84.2% | viability, T/C [8] 71.7% | viability, T/C [9] 65.6% | viability, T/C [10] 56.2% | viability, T/C [27] 44.3% | viability, T/C [11] 88.3% | viability, T/C [12] 86.5% | viability, T/C [13] 74.2% | viability, T/C [14] 66.8% | viability, T/C [15] 56% | viability, T/C [28] 44.1% | viability, T/C [16] 112% | viability, T/C [17] 113% | viability, T/C [18] 88.8% | viability, T/C [19] 70.7% | viability, T/C [20] 51.3% | viability, T/C [29] 40.2% | viability, T/C [21] 99.1% | viability, T/C [22] 101% | viability, T/C [23] 89.7% | viability, T/C [24] 63.1% | viability, T/C [25] 47.3% | viability, T/C [30] 38.3%
56.3 nM: IC50 (second compound 0.316 µM)
> 100 nM: IC50 (second compound 0.1 µM)

CC1(C)CCC(CN2CCN(c3ccc(C(=O)NS(=O)(=O)c4ccc(NCC5CCOCC5)c([N+](=O)[O-])c4)c(Oc4cnc5[nH]ccc5c4)c3)CC2)=C(c2ccc(Cl)cc2)C1 + CC1OCC2(CCN(c3cnc(Sc4ccnc(N)c4Cl)c(N)n3)CC2)C1N
5820 nM: IC50 (second compound 0.316 µM)
7010 nM: IC50 (second compound 0.1 µM)
4360 nM: IC50 (second compound 3.16 µM)
active: viability, T/C [50] 3.41%
2840 nM: IC50 (second compound 10 µM)
5510 nM: IC50 (second compound 1 µM)
inactive: viability, T/C [5] 96% | viability, T/C [26] 89.7% | viability, T/C [31] 95.3% | viability, T/C [32] 77.6% | viability, T/C [33] 70.5% | viability, T/C [34] 41.3% | viability, T/C [10] 86.2% | viability, T/C [27] 98.2% | viability, T/C [35] 89% | viability, T/C [36] 87% | viability, T/C [37] 62% | viability, T/C [38] 39.3% | viability, T/C [15] 102% | viability, T/C [28] 94.7% | viability, T/C [39] 103% | viability, T/C [40] 99% | viability, T/C [41] 71.1% | viability, T/C [42] 27.3% | viability, T/C [20] 115% | viability, T/C [29] 120% | viability, T/C [43] 121% | viability, T/C [44] 116% | viability, T/C [45] 64.2% | viability, T/C [46] 13.1% | viability, T/C [25] 107% | viability, T/C [30] 109% | viability, T/C [47] 114% | viability, T/C [48] 107% | viability, T/C [49] 44.3%

COc1cc(Nc2ncc3c(n2)-c2ccc(Cl)cc2C(c2c(F)cccc2OC)=NC3)ccc1C(=O)O + CC1OCC2(CCN(c3cnc(Sc4ccnc(N)c4Cl)c(N)n3)CC2)C1N
inactive: viability, T/C [5] 101% | viability, T/C [26] 101% | viability, T/C [31] 99.8% | viability, T/C [32] 82.2% | viability, T/C [33] 99.8% | viability, T/C [34] 95.8% | viability, T/C [10] 97.1% | viability, T/C [27] 95.1% | viability, T/C [35] 95.6% | viability, T/C [36] 86.6% | viability, T/C [37] 81.3% | viability, T/C [38] 87.9% | viability, T/C [15] 102% | viability, T/C [28] 98.5% | viability, T/C [39] 88.1% | viability, T/C [40] 91.7% | viability, T/C [41] 90.9% | viability, T/C [42] 98% | viability, T/C [20] 103% | viability, T/C [29] 105% | viability, T/C [43] 97.9% | viability, T/C [44] 103% | viability, T/C [45] 104% | viability, T/C [46] 93.4% | viability, T/C [25] 113% | viability, T/C [30] 101% | viability, T/C [47] 103% | viability, T/C [48] 96.5% | viability, T/C [49] 103% | viability, T/C [50] 91.5%
> 10000 nM: IC50 (second compound 0.1 µM) | IC50 (second compound 0.316 µM) | IC50 (second compound 1 µM) | IC50 (second compound 3.16 µM) | IC50 (second compound 10 µM)

COc1cc2nccc(Oc3ccc(NC(=O)C4(C(=O)Nc5ccc(F)cc5)CC4)cc3)c2cc1OC + CC1OCC2(CCN(c3cnc(Sc4ccnc(N)c4Cl)c(N)n3)CC2)C1N
> 10000 nM: IC50 (second compound 0.1 µM) | IC50 (second compound 0.316 µM) | IC50 (second compound 1 µM) | IC50 (second compound 3.16 µM) | IC50 (second compound 10 µM)
inactive: viability, T/C [5] 93.7% | viability, T/C [26] 93.7% | viability, T/C [31] 89.3% | viability, T/C [32] 102% | viability, T/C [33] 105% | viability, T/C [34] 102% | viability, T/C [10] 97.5% | viability, T/C [27] 91% | viability, T/C [35] 89.3% | viability, T/C [36] 105% | viability, T/C [37] 108% | viability, T/C [38] 86.5% | viability, T/C [15] 116% | viability, T/C [28] 96.8% | viability, T/C [39] 108% | viability, T/C [40] 112% | viability, T/C [41] 90.7% | viability, T/C [42] 90% | viability, T/C [20] 115% | viability, T/C [29] 122% | viability, T/C [43] 118% | viability, T/C [44] 119% | viability, T/C [45] 103% | viability, T/C [46] 81.6% | viability, T/C [25] 112% | viability, T/C [30] 121% | viability, T/C [47] 111% | viability, T/C [48] 119% | viability, T/C [49] 80.6% | viability, T/C [50] 67.7%

Cn1ncnc1[C@H]1c2n[nH]c(=O)c3cc(F)cc(c23)N[C@@H]1c1ccc(F)cc1 + CC1OCC2(CCN(c3cnc(Sc4ccnc(N)c4Cl)c(N)n3)CC2)C1N
> 100 nM: IC50 (second compound 0.1 µM) | IC50 (second compound 0.316 µM) | IC50 (second compound 1 µM) | IC50 (second compound 3.16 µM) | IC50 (second compound 10 µM)
inactive: viability, T/C [1] 86.7% | viability, T/C [2] 91% | viability, T/C [3] 78.5% | viability, T/C [4] 83.2% | viability, T/C [5] 79.5% | viability, T/C [26] 77.2% | viability, T/C [6] 93.3% | viability, T/C [7] 76.7% | viability, T/C [8] 81.5% | viability, T/C [9] 80.2% | viability, T/C [10] 79.2% | viability, T/C [27] 78.2% | viability, T/C [11] 83.6% | viability, T/C [12] 82% | viability, T/C [13] 79% | viability, T/C [14] 78% | viability, T/C [15] 82.9% | viability, T/C [28] 86.4% | viability, T/C [16] 99.8% | viability, T/C [17] 95.6% | viability, T/C [18] 96.3% | viability, T/C [19] 106% | viability, T/C [20] 96.2% | viability, T/C [29] 82% | viability, T/C [21] 105% | viability, T/C [22] 103% | viability, T/C [23] 95% | viability, T/C [24] 103% | viability, T/C [25] 100% | viability, T/C [30] 97.9%
